Test results published in patent publication US20240287124A1, “PRODRUGS OF 4'-SUBSTITUTED NUCLEOSIDE REVERSE TRANSCRIPTASE INHIBITORS” (Merck Sharp & Dohme LLC, priority 2023, published 2024).

The compounds below were run on HIV-1 wild-type (R8) virus (assay: Viral KINetics in Green cells (VIKING) assay, HIV-1 replication in MT4-GFP reporter cells). Details: Human immunodeficiency virus 1, 10% normal human serum, MT4-GFP cells, HIV-1 wild-type (R8); read-out: Viking (10% NHS), IC50.
Type: cell-based
Method: Antiviral potency of the compounds was determined based on their ability to block HIV-1 replication in a GFP reporter cell line; this assay is referred to as Viral KINetics in Green cells or VIKING assay. HIV-1 replication was monitored using MT4-gag-GFP clone D3 (hereafter designate MT4-GFP) cells, which are MT4 cells modified to harbor a GFP reporter gene, the expression of which is dependent on the HIV-1 proteins tat and rev. (MT4 is a human T-cell line that is particularly sensitive to HIV-1 replication.) HIV-1 infection of MT4-GFP cells results in GFP expression approximately 24 h post-infection. MT4-GFP cells were maintained at 37° C./5% CO2/90% relative humidity in RPMI 1640 supplemented with 10% fetal bovine serum, 100 U/mL penicillin/streptomycin, and […] G418 to maintain the reporter gene. For infections, MT4-GFP cells were placed in the same medium lacking G418 and infected overnight with HIV-1 wild-type (R8) virus at an approximate multiplicity of infection of 0.01 in the same incubation conditions. Cells were then washed and resuspended in RPMI 1640 containing 10% normal human serum at 2×10^5 cells/mL. Compound plates were prepared by dispensing compounds dissolved in DMSO into wells of 384-well poly D lysine-coated plates (0.2 μl/well) using an ECHO acoustic dispenser. Each compound was tested in a 10-point serial 3-fold dilution (typical final concentrations: 4 μM-0.2 nM). Controls included no inhibitor (DMSO only) and a combination of three antiviral agents as a positive control (efavirenz, indinavir, and an integrase strand transfer inhibitor at final concentrations of 4 μM each). Infected cells were added (50 μL/well) to compound plates and were maintained at 37° C./5% CO2/90% relative humidity. Infected cells were quantified at two time points, approximately 48 h and 72 h post-infection, by counting the number of green cells in each well using an Acumen eX3 scanner. The increase in the number of green cells over ˜24 h period gives the reproductive ratio, R, which is calculated by dividing the number of green cells at 72 h over those at 48 h post-infection. The percent inhibition caused by a test compound is calculated using the following formula: […]
The dose-response curves of each test compound were plotted as % inhibition versus the compound concentration. IC50 values were determined by non-linear 4-parameter fitting of the dose-response curves.
For C#C[C@]1(COC(=O)OCc2ccn(C)c(=O)c2)O[C@@H](n2ccc3c(N)nc(Cl)nc32)C[C@@H]1O [Example 131], the IC50 was 3.5 nM. C#C[C@]1(COC(=O)OCCCCC[C@@H]2SC[C@@H]3NC(=O)N[C@@H]32)O[C@@H](n2ccc3c(N)nc(Cl)nc32)C[C@@H]1OC(=O)OCCC12CC3CC(CC(C3)C1)C2 [Example 176] gave an IC50 of 127 nM. C#C[C@]1(COC(=O)CC23CC(C2)C3)O[C@@H](n2ccc3c(N)nc(Cl)nc32)C[C@@H]1O [Example 97] gave an IC50 of 1.6 nM. Compound C#C[C@]1(COC(=O)OCc2ccccc2)O[C@@H](n2ccc3c(N)nc(Cl)nc32)C[C@@H]1OC(=O)CCCCCCC [Example 211] has an IC50 of 4 nM. For C#C[C@]1(CO)O[C@@H](n2ccc3c(NC(=O)OCCc4ccccc4)nc(Cl)nc32)C[C@@H]1O [Example 149], the IC50 was 429 nM. With C#C[C@]1(CO)O[C@@H](n2ccc3c(N)nc(Cl)nc32)C[C@@H]1OC(=O)CCCCCCCCCCCCCCC [Example 83] the IC50 was 25 nM. C#C[C@]1(CO)O[C@@H](n2ccc3c(N(C(=O)OCCCCCCCCCC)C(=O)OCCCCCCCCCC)nc(Cl)nc32)C[C@@H]1O [Example 220] gave an IC50 of 615 nM. With C#C[C@]1(CO)O[C@@H](n2ccc3c(N)nc(Cl)nc32)C[C@@H]1OC(=O)OCc1ccc[nH]c1=O [Example 201] the IC50 was 2.6 nM. Work on C#C[C@]1(COC(=O)CCCC[C@@H]2SC[C@@H]3NC(=O)N[C@@H]32)O[C@@H](n2ccc3c(N)nc(Cl)nc32)C[C@@H]1OC(=O)OCC [Example 196] yielded an IC50 of 27 nM. C#C[C@]1(COC(=O)OCc2ccc[nH]c2=O)O[C@@H](n2ccc3c(N)nc(Cl)nc32)C[C@@H]1O [Example 209] gave an IC50 of 3.9 nM. With C#C[C@]1(CO)O[C@@H](n2ccc3c(NC(=O)OCCC45CC6CC(CC(C6)C4)C5)nc(Cl)nc32)C[C@@H]1O [Example 148] the IC50 was 339 nM. C#C[C@]1(COC(=O)OCc2ccccc2)O[C@@H](n2ccc3c(N)nc(Cl)nc32)C[C@@H]1OC(=O)OCCC12CC3CC(CC(C3)C1)C2 [Example 215] was tested, and the IC50 was 44 nM. C#C[C@]1(CO)O[C@@H](n2ccc3c(NC(=O)OCCCCCCCCCCCCCC)nc(Cl)nc32)C[C@@H]1O [Example 63, Tetradecyl (2-chloro-7-((2R,4S,5R)-5-ethynyl-4-hydroxy-5-(hydroxymethyl)tetrahydrofuran-2-yl)-7H-pyrrolo[2,3-d]pyrimidin-4-yl)carbamate] was tested, and the IC50 was 1490 nM. For C#C[C@]1(COC(=O)[C@@H](C)c2ccccc2)O[C@@H](n2ccc3c(N)nc(Cl)nc32)C[C@@H]1OC(=O)[C@@H](C)c1ccccc1 [Example 103], the IC50 was 405 nM. C#C[C@]1(COC(=O)OCc2cccnc2)O[C@@H](n2ccc3c(N)nc(Cl)nc32)C[C@@H]1OC(=O)OCc1cccnc1 [Example 164] showed an IC50 of 13 nM. C#C[C@]1(COC(=O)OCc2ccc[nH]c2=O)O[C@@H](n2ccc3c(N)nc(Cl)nc32)C[C@@H]1OC(=O)OCc1ccccc1 [Example 94] showed an IC50 of 6.1 nM. C#C[C@]1(COC(=O)OCC23CC(C2)C3)O[C@@H](n2ccc3c(N)nc(Cl)nc32)C[C@@H]1O [Example 168] gave an IC50 of 3.9 nM. For C#C[C@]1(CO)O[C@@H](n2ccc3c(NC(=O)OCCCCCCCCCC)nc(Cl)nc32)C[C@@H]1O [Example 71, Decyl(2-chloro-7-((2R,4S,5R)-5-ethynyl-4-hydroxy-5-(hydroxymethyl)tetrahydrofuran-2-yl)-7H-pyrrolo[2,3-d]pyrimidin-4-yl)carbamate], the IC50 was 785 nM. For C#C[C@]1(CO)O[C@@H](n2ccc3c(NC(=O)OCCCCCC)nc(Cl)nc32)C[C@@H]1O [Example 221], the IC50 was 710 nM. In the case of C#C[C@]1(CO)O[C@@H](n2ccc3c(N)nc(Cl)nc32)C[C@@H]1OC(=O)[C@@H](C)c1ccccc1 [Example 102], the IC50 is reported as 43 nM. For C#C[C@]1(COC(=O)CC23CC(C2)C3)O[C@@H](n2ccc3c(N)nc(Cl)nc32)C[C@@H]1OC(=O)CC12CC(C1)C2 [Example 95], the IC50 was 8.6 nM. With C#C[C@]1(CO)O[C@@H](n2ccc3c(N(C(=O)OCCCCCCCC)C(=O)OCCCCCCCC)nc(Cl)nc32)C[C@@H]1O [Example 224] the IC50 was 842 nM. Compound C#C[C@]1(COC(=O)OCC(C)(C)C)O[C@@H](n2ccc3c(N)nc(Cl)nc32)C[C@@H]1O [Example 123] has an IC50 of 4.1 nM. C#C[C@]1(CO)O[C@@H](n2ccc3c(NC(=O)CCCCCCCCCCCCC)nc(Cl)nc32)C[C@@H]1O [Example 70, N-(2-chloro-7-((2R,4S,5R)-5-ethynyl-4-hydroxy-5-(hydroxymethyl)tetrahydrofuran-2-yl)-7H-pyrrolo[2,3-d]pyrimidin-4-yl)tetradecanamide] showed an IC50 of 58 nM. Compound C#C[C@]1(COC(=O)OCc2cccn(C)c2=O)O[C@@H](n2ccc3c(N)nc(Cl)nc32)C[C@@H]1OC(=O)OCc1cccn(C)c1=O [Example 206] has an IC50 of 3.4 nM. Compound C#C[C@]1(COC(=O)OCCCc2ccccc2)O[C@@H](n2ccc3c(N)nc(Cl)nc32)C[C@@H]1O [Example 128] has an IC50 of 3 nM. In the case of C#C[C@]1(COC(=O)CCCCCCCCCCCCCCCCCCC)O[C@@H](n2ccc3c(N)nc(Cl)nc32)C[C@@H]1O [Example 91], the IC50 is reported as 135 nM. For C#C[C@]1(CO)O[C@@H](n2ccc3c(N)nc(Cl)nc32)C[C@@H]1OC(=O)CC12CC(C1)C2 [Example 96], the IC50 was 7.1 nM. C#C[C@]1(CO)O[C@@H](n2ccc3c(N)nc(Cl)nc32)C[C@@H]1OCOC(=O)OC(C)C [Example 141] gave an IC50 of 3.5 nM. In the case of C#C[C@]1(COC(=O)C23CC(C2)C3)O[C@@H](n2ccc3c(N)nc(Cl)nc32)C[C@@H]1O [Example 106], the IC50 is reported as 2.5 nM. C#C[C@]1(COC(=O)O[C@@H](C)c2ccccc2)O[C@@H](n2ccc3c(N)nc(Cl)nc32)C[C@@H]1O [Example 127] gave an IC50 of 3.8 nM. C#C[C@]1(COC(=O)CCCCC)O[C@@H](n2ccc3c(N)nc(Cl)nc32)C[C@@H]1OC(=O)OCc1cccnc1 [Example 192] gave an IC50 of 6.5 nM. In the case of C#C[C@]1(COC(=O)OCCC23CC(C2)C3)O[C@@H](n2ccc3c(N)nc(Cl)nc32)C[C@@H]1O [Example 170], the IC50 is reported as 4.3 nM. C#C[C@]1(COC(=O)OCc2cccn(C)c2=O)O[C@@H](n2ccc3c(N)nc(Cl)nc32)C[C@@H]1O [Example 208] was tested, and the IC50 was 4.4 nM. C#C[C@]1(COC(=O)O[C@H](C)c2ccccc2)O[C@@H](n2ccc3c(N)nc(Cl)nc32)C[C@@H]1O [Example 125] was tested, and the IC50 was 3.7 nM. Compound C#C[C@]1(COC(=O)Cc2ccc(Cl)cc2)O[C@@H](n2ccc3c(N)nc(Cl)nc32)C[C@@H]1OC(=O)OCCC12CC3CC(CC(C3)C1)C2 [Example 107] has an IC50 of 74 nM. With C#C[C@]1(CO)O[C@@H](n2ccc3c(N)nc(Cl)nc32)C[C@@H]1OC(=O)OCc1ccn(C)c(=O)c1 [Example 158] the IC50 was 11 nM. Work on C#C[C@]1(COC(=O)CCCCC)O[C@@H](n2ccc3c(N)nc(Cl)nc32)C[C@@H]1OC(=O)CCCC[C@@H]1SC[C@@H]2NC(=O)N[C@@H]21 [Example 191] yielded an IC50 of 20 nM. C#C[C@]1(COC(=O)OCCCCCCCCCC)O[C@@H](n2ccc3c(N)nc(Cl)nc32)C[C@@H]1OC(=O)OCCCCCCCCCC [Example 92] showed an IC50 of 3510 nM. In the case of C#C[C@]1(COC(=O)OCCCCC[C@@H]2SC[C@@H]3NC(=O)N[C@@H]32)O[C@@H](n2ccc3c(NC(=O)CCc4ccccc4)nc(Cl)nc32)C[C@@H]1O [Example 204], the IC50 is reported as 123 nM. C#C[C@]1(COC(=O)Cc2ccc(Cl)cc2)O[C@@H](n2ccc3c(NC(=O)CCc4ccccc4)nc(Cl)nc32)C[C@@H]1O [Example 147] gave an IC50 of 55 nM. Compound C#C[C@]1(CO)O[C@@H](n2ccc3c(N)nc(Cl)nc32)C[C@@H]1OCOC(=O)c1ccccc1 [Example 139] has an IC50 of 3.6 nM. C#C[C@]1(COC(=O)OCC23CC(C2)C3)O[C@@H](n2ccc3c(N)nc(Cl)nc32)C[C@@H]1OC(=O)OCCC12CC3CC(CC(C3)C1)C2 [Example 175] showed an IC50 of 34 nM. For C#C[C@]1(COC(=O)OCCC23CC(C2)C3)O[C@@H](n2ccc3c(N)nc(Cl)nc32)C[C@@H]1OC(=O)OCCC12CC(C1)C2 [Example 169], the IC50 was 13 nM. In the case of C#C[C@]1(COC(=O)CCCC)O[C@@H](n2ccc3c(N)nc(Cl)nc32)C[C@@H]1OC(C)=O [Example 186], the IC50 is reported as 25 nM. C#C[C@]1(CO)O[C@@H](n2ccc3c(N)nc(Cl)nc32)C[C@@H]1OC(=O)[C@H](C)c1ccccc1 [Example 99] gave an IC50 of 29 nM. Work on C#C[C@]1(COC(=O)OCC23CC(C2)C3)O[C@@H](n2ccc3c(N)nc(Cl)nc32)C[C@@H]1OC(=O)OCC12CC(C1)C2 [Example 167] yielded an IC50 of 7.2 nM. With C#C[C@]1(COCOC(=O)Oc2ccccc2)O[C@@H](n2ccc3c(N)nc(Cl)nc32)C[C@@H]1O [Example 135] the IC50 was 3.8 nM. Compound C#C[C@]1(CO)O[C@@H](n2ccc3c(NC(=O)OCCCCCCCCCCCC)nc(Cl)nc32)C[C@@H]1O [Example 219] has an IC50 of 2410 nM.
